The source of these data is patent US10537545B2, “Ceramide derivatives as anticancer agents” (Rutgers, The State University of New Jersey, priority 2015, dated 2020).

Assay [1] relates to MCF7. The assay can be described thus: Cytotoxicity assay, MCF7 cancer cell line. The following applies: for CTRL MCF7 (growth relative to control): control = 1; for Growth MCF7: control growth 0.7. Type of assay: cell-based, human. As for the experimental part: (§1) Cytotoxicity Assay. […] Cells were treated with varying concentrations of compounds. The IC50 were measured. […] In order to verify that assumption an LDH (Lactate Dehydrogenase) assay was performed.

Assay [2] deals with HELA. The assay can be described thus: Cytotoxicity assay, HELA cancer cell line. The following applies: for CTRL HELA (growth relative to control): control = 1; for Growth HELA: control growth 0.55. Type of assay: cell-based. Here is the method:
as §1

In assay [3] the test system is MCF7. To be noted: reported in Andrianasolo et al., J. Nat. Prod. 2011, read-out: IC50, growth inhibition of MCF7 (breast cancer); cited from earlier work.
Assay [4] has as its system HELA. The following applies: reported in Andrianasolo et al., J. Nat. Prod. 2011, read-out: IC50, growth inhibition of HeLa (cervical cancer); cited from earlier work.
In another assay the target is HDAC2 (Homo sapiens, UniProt Q92769). The assay can be described thus: HDAC inhibitor assay, HDAC2. Type of assay: biochemical. To be noted: up to 50 or 100 μM. An excerpt: (§2) Compound VIII was subjected to enzymatic inhibition test against the class I (HDAC1, HDAC2, HDAC3 and HDAC8), the class II A (HDAC4, HDAC5, HDAC7 and HDAC9) and the class II B (HDAC6) enzymes. HDAC inhibitors Trichostatin A (TSA) and TMP269 (TMP) were used as reference compounds.

Another assay deals with HDAC4 (Homo sapiens, UniProt P56524). The assay can be described thus: HDAC inhibitor assay, HDAC4. Type of assay: biochemical. The following applies: up to 50 or 100 μM.
Text: as §2

The target in another assay is HDAC9 (Homo sapiens, UniProt Q9UKV0). The assay can be described thus: HDAC inhibitor assay, HDAC9. Type of assay: biochemical. The following applies: up to 50 or 100 μM.
Text: as §2

In a further assay the target is T1, HDAC7 (Homo sapiens, UniProt Q8WUI4).
T1 sequence (Q8WUI4 1-952): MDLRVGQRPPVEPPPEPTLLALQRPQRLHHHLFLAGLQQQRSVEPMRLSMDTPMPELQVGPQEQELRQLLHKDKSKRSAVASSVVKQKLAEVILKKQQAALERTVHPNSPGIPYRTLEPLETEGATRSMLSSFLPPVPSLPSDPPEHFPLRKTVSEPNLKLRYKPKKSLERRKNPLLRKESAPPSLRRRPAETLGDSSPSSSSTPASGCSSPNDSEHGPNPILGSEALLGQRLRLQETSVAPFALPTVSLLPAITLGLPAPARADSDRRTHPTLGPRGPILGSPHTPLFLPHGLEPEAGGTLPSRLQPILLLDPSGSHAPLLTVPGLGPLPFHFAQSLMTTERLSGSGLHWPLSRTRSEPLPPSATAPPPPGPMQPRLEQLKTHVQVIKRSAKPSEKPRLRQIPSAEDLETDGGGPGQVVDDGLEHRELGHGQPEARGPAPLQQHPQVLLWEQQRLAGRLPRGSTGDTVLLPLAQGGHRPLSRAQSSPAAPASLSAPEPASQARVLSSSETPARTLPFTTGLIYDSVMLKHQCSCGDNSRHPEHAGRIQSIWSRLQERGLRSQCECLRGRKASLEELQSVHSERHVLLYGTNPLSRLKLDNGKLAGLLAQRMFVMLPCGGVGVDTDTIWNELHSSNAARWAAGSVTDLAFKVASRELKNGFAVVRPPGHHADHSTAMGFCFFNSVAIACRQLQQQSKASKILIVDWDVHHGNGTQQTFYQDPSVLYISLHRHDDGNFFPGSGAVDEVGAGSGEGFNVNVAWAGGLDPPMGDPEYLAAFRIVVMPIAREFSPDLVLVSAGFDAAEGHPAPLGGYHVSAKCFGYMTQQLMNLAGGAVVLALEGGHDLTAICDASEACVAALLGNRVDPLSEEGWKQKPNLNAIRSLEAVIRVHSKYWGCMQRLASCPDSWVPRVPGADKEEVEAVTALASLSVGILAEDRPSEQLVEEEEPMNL
In words: HDAC inhibitor assay, HDAC7. To be noted: up to 50 or 100 μM. Type of assay: biochemical.
Text: as §2

In another assay the target is HDAC1 (Homo sapiens, UniProt Q13547). In words: HDAC inhibitor assay, HDAC1. Type of assay: biochemical. The following applies: up to 50 or 100 μM.
Text: as §2

In a further assay the target is HDAC5 (Homo sapiens, UniProt Q9UQL6). The assay can be described thus: HDAC inhibitor assay, HDAC5. The following applies: up to 50 or 100 μM. Type of assay: biochemical.
Text: as §2

The target of another assay is T2, HDAC8 (Homo sapiens, UniProt Q9BY41).
T2 sequence (Q9BY41 1-377): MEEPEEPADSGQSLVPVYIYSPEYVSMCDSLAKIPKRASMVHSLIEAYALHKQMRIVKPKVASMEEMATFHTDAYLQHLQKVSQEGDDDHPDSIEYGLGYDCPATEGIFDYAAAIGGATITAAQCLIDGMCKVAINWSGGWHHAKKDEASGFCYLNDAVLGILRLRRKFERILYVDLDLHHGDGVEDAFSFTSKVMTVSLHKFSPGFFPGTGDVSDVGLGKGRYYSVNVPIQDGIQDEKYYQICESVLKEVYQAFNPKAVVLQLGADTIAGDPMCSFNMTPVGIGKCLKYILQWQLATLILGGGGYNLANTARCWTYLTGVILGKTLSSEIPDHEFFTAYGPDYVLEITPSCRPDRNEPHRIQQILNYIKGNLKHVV
In words: HDAC inhibitor assay, HDAC8. To be noted: up to 50 or 100 μM. Type of assay: biochemical.
Text: as §2

The next assay has as its target HDAC3 (Homo sapiens, UniProt O15379). In words: HDAC inhibitor assay, HDAC3. Type of assay: biochemical. To be noted: up to 50 or 100 μM.
Text: as §2

In the next assay the target is T3, HDAC6 (Homo sapiens, UniProt Q9UBN7).
T3 sequence (Q9UBN7 1-1215): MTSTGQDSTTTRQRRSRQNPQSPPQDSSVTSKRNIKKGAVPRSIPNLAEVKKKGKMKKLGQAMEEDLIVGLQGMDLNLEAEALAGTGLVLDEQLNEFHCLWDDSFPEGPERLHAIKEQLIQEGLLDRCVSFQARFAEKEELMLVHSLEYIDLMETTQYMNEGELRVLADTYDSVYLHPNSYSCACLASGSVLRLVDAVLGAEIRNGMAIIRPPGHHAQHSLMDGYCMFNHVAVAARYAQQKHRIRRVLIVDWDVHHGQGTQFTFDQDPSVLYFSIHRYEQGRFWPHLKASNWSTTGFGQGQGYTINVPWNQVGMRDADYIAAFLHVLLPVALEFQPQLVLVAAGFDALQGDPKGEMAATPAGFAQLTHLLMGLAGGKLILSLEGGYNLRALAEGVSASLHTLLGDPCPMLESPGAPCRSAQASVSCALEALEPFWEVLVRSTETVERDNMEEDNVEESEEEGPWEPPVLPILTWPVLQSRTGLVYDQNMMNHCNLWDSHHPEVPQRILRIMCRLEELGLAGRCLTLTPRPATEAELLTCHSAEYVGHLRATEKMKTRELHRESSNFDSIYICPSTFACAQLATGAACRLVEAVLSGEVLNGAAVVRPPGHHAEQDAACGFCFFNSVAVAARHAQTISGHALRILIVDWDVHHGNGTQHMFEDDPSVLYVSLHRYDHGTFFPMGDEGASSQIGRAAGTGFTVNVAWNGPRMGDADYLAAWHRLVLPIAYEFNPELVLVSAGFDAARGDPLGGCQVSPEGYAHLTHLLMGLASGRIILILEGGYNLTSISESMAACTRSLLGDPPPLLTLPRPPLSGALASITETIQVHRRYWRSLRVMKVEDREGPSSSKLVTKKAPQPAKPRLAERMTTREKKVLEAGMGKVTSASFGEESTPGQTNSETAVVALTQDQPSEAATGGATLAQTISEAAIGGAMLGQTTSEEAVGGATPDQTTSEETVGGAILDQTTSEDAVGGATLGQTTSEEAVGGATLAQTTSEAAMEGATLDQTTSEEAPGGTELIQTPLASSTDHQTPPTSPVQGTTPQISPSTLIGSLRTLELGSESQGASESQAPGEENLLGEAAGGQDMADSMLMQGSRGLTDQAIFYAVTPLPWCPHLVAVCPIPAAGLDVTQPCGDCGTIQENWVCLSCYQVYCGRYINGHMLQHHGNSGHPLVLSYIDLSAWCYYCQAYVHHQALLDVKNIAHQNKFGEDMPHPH
In words: HDAC inhibitor assay, HDAC6. To be noted: class II B HDAC6; read-out: IC50, inhibition of HDAC6. Type of assay: biochemical.
Text: as §2

Chain of HDAC4 (P56524 whole entry, species assumed): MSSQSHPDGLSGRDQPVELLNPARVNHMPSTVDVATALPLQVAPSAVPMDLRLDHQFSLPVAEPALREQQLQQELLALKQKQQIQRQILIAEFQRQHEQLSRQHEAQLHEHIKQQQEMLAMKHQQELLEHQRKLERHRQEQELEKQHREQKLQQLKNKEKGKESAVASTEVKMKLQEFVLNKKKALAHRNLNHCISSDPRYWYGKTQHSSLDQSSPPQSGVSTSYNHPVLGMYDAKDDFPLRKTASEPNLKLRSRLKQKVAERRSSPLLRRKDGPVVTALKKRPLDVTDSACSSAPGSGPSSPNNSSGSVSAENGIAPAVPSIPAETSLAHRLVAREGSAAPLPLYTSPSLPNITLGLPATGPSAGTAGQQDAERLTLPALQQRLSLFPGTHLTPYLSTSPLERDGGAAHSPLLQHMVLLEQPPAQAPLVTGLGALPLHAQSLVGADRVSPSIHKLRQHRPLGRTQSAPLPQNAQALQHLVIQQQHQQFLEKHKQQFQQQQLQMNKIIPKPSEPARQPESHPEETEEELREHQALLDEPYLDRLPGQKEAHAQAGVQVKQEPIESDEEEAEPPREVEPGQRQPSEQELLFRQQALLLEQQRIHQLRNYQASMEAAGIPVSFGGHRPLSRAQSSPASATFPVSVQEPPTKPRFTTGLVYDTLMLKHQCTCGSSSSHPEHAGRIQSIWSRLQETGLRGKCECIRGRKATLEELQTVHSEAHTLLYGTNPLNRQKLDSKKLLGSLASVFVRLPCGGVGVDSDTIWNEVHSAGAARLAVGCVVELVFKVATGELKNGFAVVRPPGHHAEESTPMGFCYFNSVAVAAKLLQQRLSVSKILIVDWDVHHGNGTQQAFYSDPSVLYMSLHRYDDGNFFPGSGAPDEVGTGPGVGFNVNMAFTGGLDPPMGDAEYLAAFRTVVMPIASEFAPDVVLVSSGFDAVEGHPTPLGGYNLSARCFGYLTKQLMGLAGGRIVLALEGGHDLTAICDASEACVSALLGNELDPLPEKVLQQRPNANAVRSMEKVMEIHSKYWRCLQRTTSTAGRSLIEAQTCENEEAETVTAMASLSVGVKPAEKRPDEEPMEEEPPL
Chain of HDAC3 (O15379 whole entry, species assumed): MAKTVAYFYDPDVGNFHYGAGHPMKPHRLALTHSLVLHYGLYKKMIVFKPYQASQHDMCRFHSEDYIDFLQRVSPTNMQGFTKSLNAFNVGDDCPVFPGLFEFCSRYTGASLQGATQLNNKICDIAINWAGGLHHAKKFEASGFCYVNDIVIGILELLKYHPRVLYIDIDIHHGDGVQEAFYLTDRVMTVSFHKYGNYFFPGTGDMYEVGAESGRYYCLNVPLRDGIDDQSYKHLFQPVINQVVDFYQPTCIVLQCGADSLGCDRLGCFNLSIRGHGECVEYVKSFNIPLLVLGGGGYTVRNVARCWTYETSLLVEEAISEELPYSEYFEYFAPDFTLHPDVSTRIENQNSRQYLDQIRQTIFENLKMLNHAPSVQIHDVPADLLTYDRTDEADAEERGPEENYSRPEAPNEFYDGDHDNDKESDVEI
Chain of HDAC3 (Q9Y618 395-489 partner limits assumed, species assumed): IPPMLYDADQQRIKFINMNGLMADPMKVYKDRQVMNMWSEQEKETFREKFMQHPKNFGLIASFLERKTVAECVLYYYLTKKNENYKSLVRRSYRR
Chain of HDAC5 (Q9UQL6 whole entry, species assumed): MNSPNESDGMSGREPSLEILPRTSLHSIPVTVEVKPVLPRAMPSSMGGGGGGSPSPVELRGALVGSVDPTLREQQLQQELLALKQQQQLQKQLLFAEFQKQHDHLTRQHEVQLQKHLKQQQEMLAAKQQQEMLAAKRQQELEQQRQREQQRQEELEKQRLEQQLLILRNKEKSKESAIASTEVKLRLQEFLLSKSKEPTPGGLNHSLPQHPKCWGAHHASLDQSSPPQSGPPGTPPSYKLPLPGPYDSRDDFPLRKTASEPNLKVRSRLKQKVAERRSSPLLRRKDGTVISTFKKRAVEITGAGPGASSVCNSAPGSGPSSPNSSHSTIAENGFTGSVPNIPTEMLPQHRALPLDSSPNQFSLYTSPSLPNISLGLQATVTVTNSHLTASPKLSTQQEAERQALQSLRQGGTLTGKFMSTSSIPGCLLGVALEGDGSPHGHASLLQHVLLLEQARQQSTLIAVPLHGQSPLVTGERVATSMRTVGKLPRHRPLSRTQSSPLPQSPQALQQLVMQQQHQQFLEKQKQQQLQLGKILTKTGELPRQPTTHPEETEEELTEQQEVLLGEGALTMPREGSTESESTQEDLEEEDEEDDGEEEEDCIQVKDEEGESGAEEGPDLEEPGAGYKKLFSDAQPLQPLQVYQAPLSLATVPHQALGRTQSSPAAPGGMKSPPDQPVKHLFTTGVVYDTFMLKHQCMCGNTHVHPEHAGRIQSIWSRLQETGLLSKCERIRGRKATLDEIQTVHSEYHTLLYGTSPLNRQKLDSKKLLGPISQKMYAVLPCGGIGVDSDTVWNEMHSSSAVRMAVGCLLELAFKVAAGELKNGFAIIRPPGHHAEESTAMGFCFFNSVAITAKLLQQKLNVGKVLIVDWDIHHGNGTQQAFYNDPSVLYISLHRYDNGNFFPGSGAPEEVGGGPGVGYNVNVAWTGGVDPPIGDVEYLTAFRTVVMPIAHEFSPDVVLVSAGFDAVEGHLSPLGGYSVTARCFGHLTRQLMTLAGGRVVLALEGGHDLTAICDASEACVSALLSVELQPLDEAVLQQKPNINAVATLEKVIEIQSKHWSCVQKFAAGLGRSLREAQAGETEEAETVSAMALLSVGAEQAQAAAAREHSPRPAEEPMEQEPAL
Chain of HDAC9 (Q9UKV0 whole entry, species assumed): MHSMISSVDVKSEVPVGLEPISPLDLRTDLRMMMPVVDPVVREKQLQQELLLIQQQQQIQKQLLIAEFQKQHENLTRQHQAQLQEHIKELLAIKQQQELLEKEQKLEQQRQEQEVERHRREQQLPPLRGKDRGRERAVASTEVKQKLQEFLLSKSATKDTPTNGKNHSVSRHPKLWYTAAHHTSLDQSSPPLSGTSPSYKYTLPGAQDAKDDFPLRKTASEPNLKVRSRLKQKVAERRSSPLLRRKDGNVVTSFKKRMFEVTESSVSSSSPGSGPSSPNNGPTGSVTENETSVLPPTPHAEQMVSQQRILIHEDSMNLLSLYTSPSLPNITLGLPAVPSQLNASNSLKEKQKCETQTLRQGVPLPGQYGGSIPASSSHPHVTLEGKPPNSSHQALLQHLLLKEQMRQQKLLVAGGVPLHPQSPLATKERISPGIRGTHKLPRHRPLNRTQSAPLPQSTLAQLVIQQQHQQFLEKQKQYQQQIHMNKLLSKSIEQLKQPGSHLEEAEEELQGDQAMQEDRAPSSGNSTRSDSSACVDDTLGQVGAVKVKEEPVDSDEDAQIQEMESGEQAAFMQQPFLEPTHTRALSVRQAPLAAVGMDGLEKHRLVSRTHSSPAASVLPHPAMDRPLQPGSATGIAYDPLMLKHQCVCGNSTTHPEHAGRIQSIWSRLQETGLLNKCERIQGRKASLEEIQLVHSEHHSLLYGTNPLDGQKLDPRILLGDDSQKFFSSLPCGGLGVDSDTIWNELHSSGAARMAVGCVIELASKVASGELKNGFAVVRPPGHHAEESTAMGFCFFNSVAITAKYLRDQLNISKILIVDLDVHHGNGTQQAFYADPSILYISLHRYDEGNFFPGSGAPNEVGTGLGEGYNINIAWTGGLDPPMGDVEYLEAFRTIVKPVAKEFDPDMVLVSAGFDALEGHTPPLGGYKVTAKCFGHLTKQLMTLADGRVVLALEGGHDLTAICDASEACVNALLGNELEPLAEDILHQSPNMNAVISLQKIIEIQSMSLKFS
Chain of HDAC1 (Q13547 whole entry, species assumed): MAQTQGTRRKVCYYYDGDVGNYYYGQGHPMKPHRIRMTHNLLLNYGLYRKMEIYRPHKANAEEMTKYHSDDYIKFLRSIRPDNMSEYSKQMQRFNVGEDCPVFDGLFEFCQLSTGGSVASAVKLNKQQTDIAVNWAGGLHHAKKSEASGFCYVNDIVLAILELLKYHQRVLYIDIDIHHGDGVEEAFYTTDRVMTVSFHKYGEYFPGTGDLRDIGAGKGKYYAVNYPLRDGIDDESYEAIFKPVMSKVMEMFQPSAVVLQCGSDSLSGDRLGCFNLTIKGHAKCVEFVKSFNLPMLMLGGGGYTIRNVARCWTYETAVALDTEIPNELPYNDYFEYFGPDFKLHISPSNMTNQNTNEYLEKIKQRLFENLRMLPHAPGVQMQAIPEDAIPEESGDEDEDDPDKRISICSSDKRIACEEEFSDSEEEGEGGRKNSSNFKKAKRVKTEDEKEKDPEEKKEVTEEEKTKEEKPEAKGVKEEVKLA
Chain of HDAC2 (Q92769 whole entry, species assumed): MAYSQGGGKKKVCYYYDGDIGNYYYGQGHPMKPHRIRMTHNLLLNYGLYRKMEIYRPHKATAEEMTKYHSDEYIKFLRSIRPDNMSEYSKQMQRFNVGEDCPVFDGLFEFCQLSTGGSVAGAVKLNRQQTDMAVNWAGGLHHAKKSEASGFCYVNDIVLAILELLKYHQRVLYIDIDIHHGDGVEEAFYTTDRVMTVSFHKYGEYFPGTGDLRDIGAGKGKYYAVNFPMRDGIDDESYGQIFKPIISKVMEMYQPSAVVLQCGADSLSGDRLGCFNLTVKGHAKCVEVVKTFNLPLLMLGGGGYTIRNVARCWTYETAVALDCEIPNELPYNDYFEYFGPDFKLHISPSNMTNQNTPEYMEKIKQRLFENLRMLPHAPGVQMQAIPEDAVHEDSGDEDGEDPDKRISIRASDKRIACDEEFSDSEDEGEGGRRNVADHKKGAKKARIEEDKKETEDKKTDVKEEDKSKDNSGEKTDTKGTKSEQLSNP

As to `CCC/C=C\C/C=C\C/C=C\CCCCC(=O)O[C@@H](COC(=O)CCCCCCCCCCCCCCC)[C@H](O)[C@H](CO)NC(=O)CCCCCCCCCCC` (relative stereo) [compound 1], the figures for the “CTRL MCF7 (growth relative to control)” value in the assay on MCF7 [1] (72 μg*0.01/ml) and in the assay with MCF7 [1] (360 μg*0.01/ml) were 0.42 and 0.15, respectively. In addition, the results for the “Growth MCF7” value with MCF7 [1] (72 μg*0.01/ml) and in the assay with MCF7 [1] (360 μg*0.01/ml) were 0.29 and 0.11, respectively. Further, the “CTRL HELA (growth relative to control)” value in the assay on HELA [2] (72 μg*0.01/ml) is listed as 0.78; in the assay with HELA [2] (360 μg*0.01/ml), 0.56. Moreover, the entries for the “Growth HELA” value in the assay with HELA [2] (72 μg*0.01/ml) and with HELA [2] (360 μg*0.01/ml) were 0.43 and 0.31, respectively. Also, the IC50 was 100 nM in the assay on MCF7 [3] and 400 nM with HELA [4].
For the compound `CCC/C=C\C/C=C\CCC(=O)O[C@@H](COC(=O)CCCCCCCCCCCCC)[C@H](O)[C@H](CO)NC(=O)CCCCCCCCCCC` [compound 2], the IC50 in the assay on MCF7 [3] is 200 nM; with HELA [4] it was 500 nM.
For the compound `C=C1CC[C@@H]2O[C@@]2(C)CC[C@H](/C(=C/CC2OC2(C)C)CO)[C@H]1C(=O)OC` (stereo partly drawn) [compound VIII], the “Inhibition of HDAC2” value at HDAC2 is reported as “did not significantly inhibit”. Also, at HDAC4, the “Inhibition of HDAC4” value was “did not significantly inhibit”. On HDAC9, the “Inhibition of HDAC9” value was “did not significantly inhibit”. Further, the “Inhibition of HDAC7” value on HDAC7 is given as “did not significantly inhibit”. For the same compound, the “Inhibition of HDAC1” value on HDAC1 is “did not significantly inhibit”. The “Inhibition of HDAC5” value on HDAC5 is recorded as “did not significantly inhibit”. Besides, the “Inhibition of HDAC8” value at HDAC8 was “did not significantly inhibit”. In addition, at HDAC3, the “Inhibition of HDAC3” value was “did not significantly inhibit”. Also, the IC50 on HDAC6 was approximately 80000 nM.
